The test system of assay [1] is other proteins of the endocannabinoid system, endocannabinoid-binding TRP ion channels. Briefly: interaction with other endocannabinoid system proteins and TRP channels.
The target in assay [2] is T1, FAAH (Homo sapiens, UniProt O00519).
T1 sequence (O00519 1-579): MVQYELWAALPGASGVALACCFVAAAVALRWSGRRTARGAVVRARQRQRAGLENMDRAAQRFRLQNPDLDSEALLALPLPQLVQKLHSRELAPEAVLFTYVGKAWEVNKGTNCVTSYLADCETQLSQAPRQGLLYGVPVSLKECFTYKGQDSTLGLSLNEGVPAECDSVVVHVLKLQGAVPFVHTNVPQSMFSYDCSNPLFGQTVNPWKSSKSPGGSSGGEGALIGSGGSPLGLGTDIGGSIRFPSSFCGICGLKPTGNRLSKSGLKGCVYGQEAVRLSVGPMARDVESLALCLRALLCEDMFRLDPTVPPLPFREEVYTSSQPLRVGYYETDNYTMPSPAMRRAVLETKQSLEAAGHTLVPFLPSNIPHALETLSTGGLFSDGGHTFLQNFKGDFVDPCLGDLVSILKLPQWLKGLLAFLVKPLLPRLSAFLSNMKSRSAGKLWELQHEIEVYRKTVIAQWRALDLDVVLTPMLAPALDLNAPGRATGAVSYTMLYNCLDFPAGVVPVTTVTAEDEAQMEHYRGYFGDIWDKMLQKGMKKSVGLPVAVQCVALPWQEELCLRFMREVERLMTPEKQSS
Briefly: MS-based ABPP in SW620 cells. The class given is cell-based. Conditions: all tested concentrations (0.2, 10, and 50 μM).

Assay [3] addresses T1, FAAH. The assay is described as follows: anandamide substrate hydrolysis assay, intact transfected HEK293T cells. The class given is cell-based. Conditions: human FAAH in transfected HEK293T cells, in situ.
Assay [4] addresses T2, rat FAAH (Rattus norvegicus, UniProt P97612).
T2 sequence (P97612 1-579): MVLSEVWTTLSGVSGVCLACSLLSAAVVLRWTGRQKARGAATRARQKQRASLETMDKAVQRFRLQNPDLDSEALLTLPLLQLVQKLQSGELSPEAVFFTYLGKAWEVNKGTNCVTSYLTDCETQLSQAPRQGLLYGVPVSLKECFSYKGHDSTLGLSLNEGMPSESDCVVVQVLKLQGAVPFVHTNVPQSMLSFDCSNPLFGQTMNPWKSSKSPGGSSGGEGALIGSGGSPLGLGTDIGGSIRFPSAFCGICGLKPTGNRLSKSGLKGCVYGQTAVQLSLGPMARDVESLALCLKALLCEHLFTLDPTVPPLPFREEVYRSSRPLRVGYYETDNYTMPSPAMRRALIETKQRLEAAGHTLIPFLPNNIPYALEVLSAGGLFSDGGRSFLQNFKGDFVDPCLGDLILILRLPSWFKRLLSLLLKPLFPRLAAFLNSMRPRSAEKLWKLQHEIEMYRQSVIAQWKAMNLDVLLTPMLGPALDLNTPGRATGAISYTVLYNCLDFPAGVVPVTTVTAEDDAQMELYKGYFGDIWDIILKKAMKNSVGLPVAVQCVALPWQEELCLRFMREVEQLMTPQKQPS
Briefly: substrate hydrolysis assay. It counts as biochemical. Conditions: in vitro.

Assay [5] concerns the target T3, ABHD6 (Homo sapiens, UniProt Q9BV23).
T3 sequence (Q9BV23 1-337): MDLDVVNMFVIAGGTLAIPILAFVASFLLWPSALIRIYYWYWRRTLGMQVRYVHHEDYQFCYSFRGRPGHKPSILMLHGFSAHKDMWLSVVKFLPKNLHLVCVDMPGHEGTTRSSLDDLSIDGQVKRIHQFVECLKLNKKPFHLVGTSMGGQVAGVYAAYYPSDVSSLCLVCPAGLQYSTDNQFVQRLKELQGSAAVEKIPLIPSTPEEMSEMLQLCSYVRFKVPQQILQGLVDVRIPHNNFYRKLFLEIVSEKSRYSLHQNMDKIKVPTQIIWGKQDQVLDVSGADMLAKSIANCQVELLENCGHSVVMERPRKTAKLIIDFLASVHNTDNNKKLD
Briefly: MS-based ABPP in SW620 cells. The class given is cell-based.

Assay [6] has as its target T4, FAAH2 (Homo sapiens, UniProt Q6GMR7).
T4 sequence (Q6GMR7 1-532): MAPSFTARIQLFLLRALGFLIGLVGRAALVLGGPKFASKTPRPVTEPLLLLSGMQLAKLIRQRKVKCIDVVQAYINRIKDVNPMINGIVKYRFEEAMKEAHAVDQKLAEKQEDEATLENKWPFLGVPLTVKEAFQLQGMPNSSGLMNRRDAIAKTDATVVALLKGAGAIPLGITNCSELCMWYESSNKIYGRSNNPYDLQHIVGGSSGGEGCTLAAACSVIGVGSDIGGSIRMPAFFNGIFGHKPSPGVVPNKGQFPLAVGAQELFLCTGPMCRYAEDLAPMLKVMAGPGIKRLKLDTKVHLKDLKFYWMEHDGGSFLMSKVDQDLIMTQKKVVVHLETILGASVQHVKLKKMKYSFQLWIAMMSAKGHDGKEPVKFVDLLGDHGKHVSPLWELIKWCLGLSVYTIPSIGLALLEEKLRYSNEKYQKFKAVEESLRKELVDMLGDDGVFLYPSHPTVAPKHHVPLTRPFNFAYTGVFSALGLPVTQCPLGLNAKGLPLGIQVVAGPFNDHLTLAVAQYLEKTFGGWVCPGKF
Briefly: competitive gel-based ABPP, intact HEK293T cells. It counts as cell-based. Conditions: FAAH2, in situ (4 h).

Assay [7] has as its target T1, FAAH. Briefly: anandamide substrate hydrolysis assay, HEK293T cell lysates. Conditions: in vitro. The class given is biochemical.
Assay [8] deals with T1, FAAH. The assay is described as follows: ABPP of human frontal cortex proteome. It counts as biochemical. Conditions: human frontal cortex proteome (post-mortem).
Assay [9] has as its target T1, FAAH. The assay is described as follows: competitive gel-based ABPP, intact HEK293T cells. It counts as cell-based. Conditions: in situ (4 h).
Assay [10] deals with T5, ABHD11 (Homo sapiens, UniProt Q8NFV4).
T5 sequence (Q8NFV4 1-306): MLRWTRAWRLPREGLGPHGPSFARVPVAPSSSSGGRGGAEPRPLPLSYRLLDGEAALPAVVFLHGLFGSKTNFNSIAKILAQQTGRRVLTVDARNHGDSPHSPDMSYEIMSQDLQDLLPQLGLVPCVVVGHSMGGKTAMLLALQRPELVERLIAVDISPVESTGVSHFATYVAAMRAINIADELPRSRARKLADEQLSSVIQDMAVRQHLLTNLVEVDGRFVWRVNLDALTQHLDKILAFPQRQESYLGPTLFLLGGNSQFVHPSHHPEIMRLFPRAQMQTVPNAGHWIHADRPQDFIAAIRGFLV
The assay is described as follows: competitive gel-based ABPP, intact HEK293T cells. Conditions: ABHD11, in situ (4 h). It counts as cell-based.

The target in assay [11] is PNPLA6 (Homo sapiens, UniProt Q8IY17). Conditions: PNPLA6, in situ (24 h), gel-based ABPP, HEK293T.
Sequence of PNPLA6 (Q8IY17 whole entry): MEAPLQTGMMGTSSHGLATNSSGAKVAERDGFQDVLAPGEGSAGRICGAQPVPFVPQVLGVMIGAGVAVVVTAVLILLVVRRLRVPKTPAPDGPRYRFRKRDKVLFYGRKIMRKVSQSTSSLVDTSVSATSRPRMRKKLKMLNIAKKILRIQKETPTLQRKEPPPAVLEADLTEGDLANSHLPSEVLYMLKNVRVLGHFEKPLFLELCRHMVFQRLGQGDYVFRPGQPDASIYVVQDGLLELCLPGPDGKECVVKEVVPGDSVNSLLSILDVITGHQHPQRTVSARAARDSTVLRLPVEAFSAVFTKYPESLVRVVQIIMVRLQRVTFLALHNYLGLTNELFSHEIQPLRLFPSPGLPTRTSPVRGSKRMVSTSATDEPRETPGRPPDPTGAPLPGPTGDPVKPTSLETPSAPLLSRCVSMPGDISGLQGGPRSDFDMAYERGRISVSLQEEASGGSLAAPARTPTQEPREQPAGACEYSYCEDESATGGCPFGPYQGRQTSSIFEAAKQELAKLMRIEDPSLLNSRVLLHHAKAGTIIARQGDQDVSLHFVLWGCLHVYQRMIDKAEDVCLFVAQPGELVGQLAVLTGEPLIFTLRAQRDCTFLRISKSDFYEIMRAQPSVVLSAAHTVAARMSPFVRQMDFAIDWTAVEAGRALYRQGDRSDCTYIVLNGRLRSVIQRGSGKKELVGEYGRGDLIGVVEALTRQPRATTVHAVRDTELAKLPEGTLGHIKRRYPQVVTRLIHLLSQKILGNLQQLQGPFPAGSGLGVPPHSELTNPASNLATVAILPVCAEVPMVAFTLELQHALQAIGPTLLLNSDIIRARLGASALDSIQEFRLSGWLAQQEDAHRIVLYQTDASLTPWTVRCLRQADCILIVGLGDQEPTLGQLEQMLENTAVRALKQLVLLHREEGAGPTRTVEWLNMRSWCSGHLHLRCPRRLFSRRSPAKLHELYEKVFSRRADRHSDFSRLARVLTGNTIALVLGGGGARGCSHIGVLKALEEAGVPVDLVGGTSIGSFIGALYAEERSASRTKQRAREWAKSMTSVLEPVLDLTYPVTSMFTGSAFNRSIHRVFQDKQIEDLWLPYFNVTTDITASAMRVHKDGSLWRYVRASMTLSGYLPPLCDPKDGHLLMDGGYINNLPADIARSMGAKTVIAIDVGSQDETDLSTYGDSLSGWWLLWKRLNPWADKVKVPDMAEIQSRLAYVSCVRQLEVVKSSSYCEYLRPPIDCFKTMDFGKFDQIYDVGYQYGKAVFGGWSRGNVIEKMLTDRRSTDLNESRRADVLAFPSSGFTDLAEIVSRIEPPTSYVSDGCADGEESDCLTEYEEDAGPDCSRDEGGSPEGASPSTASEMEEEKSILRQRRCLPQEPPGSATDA
Assay [12] has as its target T3, ABHD6. The assay is described as follows: competitive gel-based ABPP, intact HEK293T cells. The class given is cell-based. Conditions: ABHD6, in situ (4 h).
Assay [13] addresses T1, FAAH. Briefly: competitive gel-based ABPP, HEK293T cell lysates. The class given is biochemical. Conditions: in vitro, HEK293T recombinantly expressing human enzyme.
Assay [14] deals with T3, ABHD6. Briefly: ABPP of human frontal cortex proteome. It counts as biochemical. Conditions: human frontal cortex proteome (post-mortem).
Assay [15] has as its target T6, CES2 (Homo sapiens, UniProt O00748).
T6 sequence (O00748 27-559): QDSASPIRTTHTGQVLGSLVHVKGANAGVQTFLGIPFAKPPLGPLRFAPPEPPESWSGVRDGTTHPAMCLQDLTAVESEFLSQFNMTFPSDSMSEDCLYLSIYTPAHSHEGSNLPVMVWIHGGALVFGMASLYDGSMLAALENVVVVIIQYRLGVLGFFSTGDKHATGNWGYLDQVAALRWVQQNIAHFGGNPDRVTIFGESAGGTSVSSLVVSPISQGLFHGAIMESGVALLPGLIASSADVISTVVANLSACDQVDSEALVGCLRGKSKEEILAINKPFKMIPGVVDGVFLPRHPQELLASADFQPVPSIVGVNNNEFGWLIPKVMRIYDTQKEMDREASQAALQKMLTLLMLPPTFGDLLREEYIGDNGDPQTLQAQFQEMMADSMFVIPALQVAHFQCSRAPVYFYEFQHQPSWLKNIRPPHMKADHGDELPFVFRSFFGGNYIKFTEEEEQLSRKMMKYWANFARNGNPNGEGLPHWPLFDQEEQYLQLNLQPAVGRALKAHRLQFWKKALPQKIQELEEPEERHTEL
The assay is described as follows: competitive gel-based ABPP, intact HEK293T cells. It counts as cell-based. Conditions: CES2, in situ (4 h).

Molecules are shown by their SMILES.

The values below come from paper PMC5641481 (Science (New York, N.Y.), 2017).

Broadly, the IC50 is the midpoint of a concentration-inhibition curve.

On to `CN(C(=O)n1cnc(-c2ccc[n+]([O-])c2)c1)C1CCCCC1` [BIA 10-2474], for which the “interaction with other proteins of the endocannabinoid system or endocannabinoid-binding TRP ion channels” value in assay [1] is reported as “did not interact”. In addition, the “engagement of human FAAH” value in assay [2] was “fully engaged”. Besides, the IC50 in [3] is 50 to 70 nM; in assay [4] it was ≥ 1000 nM; in [6] it was 400 nM; in assay [7] (human FAAH) it was ≥ 1000 nM; in assay [9], 49 nM; in assay [10] it was > 10000 nM. In addition, the IC50 amounted to 11000 nM in [11], 81 nM in assay [12] and 7500 nM in assay [13]. Moreover, the “inhibition of ABHD6” value in assay [5] (10 μM, 4 h) is > 90%; in assay [5] (50 μM, 24 h) it was > 90%. In [8], the “cross-reactivity with FAAH” value is recorded as “cross-reactivity”. Also, the “cross-reactivity with ABHD6” value in assay [14] is reported as “cross-reactivity”.
`CN(C(=O)n1cnc(-c2cccnc2)c1)C1CCCCC1` [BIA 10-2639]: the IC50 in assay [15] was 630 nM; in [6], 100 nM; in assay [9], 49 nM; in assay [12] it was 79 nM; in assay [13], 4100 nM.
Take `O=C(Nc1cccnn1)N1CCC(=Cc2cccc(Oc3ccc(C(F)(F)F)cn3)c2)CC1` [PF04457845]: the “interaction with other proteins of the endocannabinoid system or endocannabinoid-binding TRP ion channels” value in assay [1] is “did not interact”. Besides, the “engagement of human FAAH” value in assay [2] is recorded as “fully engaged”. Further, the IC50 was > 10000 nM in assay [15]; 590 nM in assay [6]; 1 to 10 nM in assay [7] (FAAH); 11 nM in assay [9]; > 10000 nM in [10]; > 50000 nM in assay [11]. The half-maximal inhibitory concentration (IC50) in assay [12] was > 10000 nM; in assay [13], 4 nM.
